Like-named read-outs stand apart in the source and are kept apart here.
Experiments:
[1] = system: EV71 genogroup B2 strain 11316; assay: microbe, parasite or virus in culture; type: cell-based; conditions: Enterovirus A, genogroup B2, strain 11316, RD cells
[2] = system: EV71 genogroup C4 strain TW/1956/05; assay: microbe, parasite or virus in culture; type: cell-based; conditions: Enterovirus A, genogroup C4, strain TW/1956/05, RD cells
[3] = system: EV71 genogroup C2 strain H08300 461#812; assay: microbe, parasite or virus in culture; type: cell-based; conditions: Enterovirus A, genogroup C2, strain H08300 461#812, RD cells
[4] = system: HIV-1 (NL4.3); assay: microbe, parasite or virus in culture; type: cell-based; conditions: MT-4 cells, 50% reduction of virus-induced cytopathic effect
[5] = system: HIV; design: method as in PMID 26513643, PMID 31809045; conditions: Figure 1, earlier prototypes; cited from earlier work
[6] = system: HIV-2 (ROD); assay: Anti-HIV-2 activity in MT-4 cells (CPE, MTS/PES); type: cell-based
[7] = system: BrCr Lab Strain of EV-A71; assay: Antiviral activity against the BrCr lab strain of EV-A71 in RD cells (CPE reduction, MTS/PMS); type: cell-based; conditions: Enterovirus A
[8] = system: EV71 genogroup B5 strain TW/70902/08; assay: microbe, parasite or virus in culture; type: cell-based; conditions: Enterovirus A, genogroup B5, strain TW/70902/08, RD cells
[9] = system: EV71; design: method as in PMID 27246775, PMID 31809045; conditions: Figure 1, earlier prototypes; cited from earlier work
[10] = system: HIV-1 (NL4.3); assay: microbe, parasite or virus in culture; type: cell-based; conditions: CXCR4-tropic strain, PBMC; for EC50: read-out: HIV-1 (NL4.3) EC50
[11] = system: HIV-1 (Ba-L); assay: microbe, parasite or virus in culture; type: cell-based; conditions: CCR5-tropic strain, PBMC, read-out: HIV-1 (Ba-L) EC50
[12] = in vitro; conditions: human
[13] = in vitro; conditions: human; remark: listed apart in the source
[14] = Cytotoxicity in MT-4 cells (MTS/PES); conditions: human
[15] = Human immunodeficiency virus 1, MT4
[16] = Human immunodeficiency virus 2, MT4, MT-4 cells, 50% reduction of virus-induced cytopathic effect, read-out: HIV-2 (ROD) EC50
[17] = EVA71, RD, BrCr lab strain, RD cells, 50% reduction of virus-induced CPE, read-out: EC50

Molecule	EC50 [4, 15] [µM]	EC50 [6, 16] [µM]	EC50 [7, 17] [µM]	CC50 [12] [µM]	further results
O=C(CCC(CCC(=O)NC(Cc1c(-c2cc(C(=O)O)cc(C(=O)O)c2)[nH]c2ccccc12)C(=O)O)(CCC(=O)NC(Cc1c(-c2cc(C(=O)O)cc(C(=O)O)c2)[nH]c2ccccc12)C(=O)O)[N+](=O)[O-])NC(Cc1c(-c2cc(C(=O)O)cc(C(=O)O)c2)[nH]c2ccccc12)C(=O)O (stereo not shown) [AL-470, reference compound]	0.3 ± 0.1	0.6 ± 0.8	0.3 ± 0.03		EC50 [1]: 0.179 ± 0.011 µM; EC50 [2]: 0.038 ± 0.003 µM; EC50 [3]: 0.057 ± 0.0002 µM; EC50 [5]: 0.27 ± 0.12 µM; EC50 ([7]; EVA71, RD, genogroup A, BrCr, RD cells (clinical isolate panel), read-out: EC50): 0.353 ± 0.031 µM; EC50 [8]: 0.081 ± 0.013 µM; EC50 [9]: 0.35 ± 0.03 µM
c1cc(CN2CCCNCCNCCCNCC2)ccc1CN1CCCNCCNCCCNCC1 [AMD3100]					EC50 ([10]; Human immunodeficiency virus 1): 3.57 ng/mL; EC50 ([11]; Human immunodeficiency virus 1, BAL): > 1000 ng/mL
O=C(CCC(CCC(=O)NC(Cc1c[nH]c2c(-c3cccc(C(=O)O)c3)cccc12)C(=O)O)(CCC(=O)NC(Cc1c[nH]c2c(-c3cccc(C(=O)O)c3)cccc12)C(=O)O)[N+](=O)[O-])NC(Cc1c[nH]c2c(-c3cccc(C(=O)O)c3)cccc12)C(=O)O (stereo not shown) [Compound 14]	45.1 ± 10.2	> 30	54.8 ± 34.1	> 100	CC50 [13]: > 84 µM
O=C(CCC(CCC(=O)NC(Cc1c[nH]c2c(-c3cc(C(=O)O)cc(C(=O)O)c3)cccc12)C(=O)O)(CCC(=O)NC(Cc1c[nH]c2c(-c3cc(C(=O)O)cc(C(=O)O)c3)cccc12)C(=O)O)[N+](=O)[O-])NC(Cc1c[nH]c2c(-c3cc(C(=O)O)cc(C(=O)O)c3)cccc12)C(=O)O (stereo not shown) [Compound 16]	0.4 ± 0.2	1.9 ± 0.4	1.2 ± 0.2		
O=C(CCOCC(COCCC(=O)NC(Cc1c[nH]c2c(-c3cccc(C(=O)O)c3)cccc12)C(=O)O)(COCCC(=O)NC(Cc1c[nH]c2c(-c3cccc(C(=O)O)c3)cccc12)C(=O)O)COCCC(=O)NC(Cc1c[nH]c2c(-c3cccc(C(=O)O)c3)cccc12)C(=O)O)NC(Cc1c[nH]c2c(-c3cccc(C(=O)O)c3)cccc12)C(=O)O (stereo not shown) [Compound 21]	14.1 ± 0.6	7.9 ± 0.9	3.1 ± 1.1		
O=C(CCOCC(COCCC(=O)NC(Cc1c[nH]c2c(-c3ccc(C(=O)O)cc3)cccc12)C(=O)O)(COCCC(=O)NC(Cc1c[nH]c2c(-c3ccc(C(=O)O)cc3)cccc12)C(=O)O)COCCC(=O)NC(Cc1c[nH]c2c(-c3ccc(C(=O)O)cc3)cccc12)C(=O)O)NC(Cc1c[nH]c2c(-c3ccc(C(=O)O)cc3)cccc12)C(=O)O (stereo not shown) [Compound 22]	6.5 ± 2.5	0.4 ± 0.3	1.7 ± 0.4	> 100	CC50 [13]: > 100 µM
O=C(CCOCC(COCCC(=O)NC(Cc1c[nH]c2c(-c3cc(C(=O)O)cc(C(=O)O)c3)cccc12)C(=O)O)(COCCC(=O)NC(Cc1c[nH]c2c(-c3cc(C(=O)O)cc(C(=O)O)c3)cccc12)C(=O)O)COCCC(=O)NC(Cc1c[nH]c2c(-c3cc(C(=O)O)cc(C(=O)O)c3)cccc12)C(=O)O)NC(Cc1c[nH]c2c(-c3cc(C(=O)O)cc(C(=O)O)c3)cccc12)C(=O)O (stereo not shown) [Compound 23]	0.02 ± 0.01	0.02 ± 0.02	0.3 ± 0.04		CC50 at 120 h [12]: 75 µM; CC50 [13]: > 55 µM
O=C(CCOCC(COCCC(=O)NC(Cc1c(-c2ccc(C(=O)O)cc2)[nH]c2c(-c3ccc(C(=O)O)cc3)cccc12)C(=O)O)(COCCC(=O)NC(Cc1c(-c2ccc(C(=O)O)cc2)[nH]c2c(-c3ccc(C(=O)O)cc3)cccc12)C(=O)O)COCCC(=O)NC(Cc1c(-c2ccc(C(=O)O)cc2)[nH]c2c(-c3ccc(C(=O)O)cc3)cccc12)C(=O)O)NC(Cc1c(-c2ccc(C(=O)O)cc2)[nH]c2c(-c3ccc(C(=O)O)cc3)cccc12)C(=O)O (stereo not shown) [Compound 32]	0.2 ± 0.2	0.02 ± 0.02	0.1 ± 0.02	> 100	CC50 [13]: > 100 µM
NC(Cc1c(-c2cc(C(=O)O)cc(C(=O)O)c2)[nH]c2c(-c3cc(C(=O)O)cc(C(=O)O)c3)cc(-c3cc(C(=O)O)cc(C(=O)O)c3)cc12)C(=O)O (stereo not shown) [Compound 37, 5,5′,5″-(3-(2-Amino-2-carboxyethyl)-1H-indole-2,5,7-triyl)triisophthalic Acid]	> 100				EC50 ([6]; Human immunodeficiency virus 2, MT4, read-out: HIV-2 (ROD) EC50): > 100 µM; EC50 ([7]; EVA71, RD): > 90 µM; CC50 at 5 days [14]: > 100 µM
O=C(CCC(CCC(=O)NC(Cc1c(-c2cccc(C(=O)O)c2)[nH]c2ccccc12)C(=O)O)(CCC(=O)NC(Cc1c(-c2cccc(C(=O)O)c2)[nH]c2ccccc12)C(=O)O)[N+](=O)[O-])NC(Cc1c(-c2cccc(C(=O)O)c2)[nH]c2ccccc12)C(=O)O (stereo not shown) [I, reference compound]	16 ± 5.7	64 ± 28		> 100	
O=C(CCC(CCC(=O)NC(Cc1c(-c2ccc(C(=O)O)cc2)[nH]c2ccccc12)C(=O)O)(CCC(=O)NC(Cc1c(-c2ccc(C(=O)O)cc2)[nH]c2ccccc12)C(=O)O)[N+](=O)[O-])NC(Cc1c(-c2ccc(C(=O)O)cc2)[nH]c2ccccc12)C(=O)O (stereo not shown) [II, reference compound]	2.4 ± 1.3	> 71		71	
O=C(CCOCC(COCCC(=O)NC(Cc1c(-c2cccc(C(=O)O)c2)[nH]c2ccccc12)C(=O)O)(COCCC(=O)NC(Cc1c(-c2cccc(C(=O)O)c2)[nH]c2ccccc12)C(=O)O)COCCC(=O)NC(Cc1c(-c2cccc(C(=O)O)c2)[nH]c2ccccc12)C(=O)O)NC(Cc1c(-c2cccc(C(=O)O)c2)[nH]c2ccccc12)C(=O)O (stereo not shown) [III, reference compound]	2 ± 0.6	0.8 ± 0.5		> 100	
O=C(CCOCC(COCCC(=O)NC(Cc1c(-c2ccc(C(=O)O)cc2)[nH]c2ccccc12)C(=O)O)(COCCC(=O)NC(Cc1c(-c2ccc(C(=O)O)cc2)[nH]c2ccccc12)C(=O)O)COCCC(=O)NC(Cc1c(-c2ccc(C(=O)O)cc2)[nH]c2ccccc12)C(=O)O)NC(Cc1c(-c2ccc(C(=O)O)cc2)[nH]c2ccccc12)C(=O)O (stereo not shown) [IV, reference compound]	0.7 ± 0.5	0.7 ± 0.8		> 100	
CN[C@@H]1[C@H](O[C@@H]2OC[C@@H](O)[C@H](O)[C@H]2O)[C@@H](O)[C@H](O[C@H]2c3cc(C)c(C(=O)N[C@H](C)C(=O)O)c(O)c3-c3c(cc4c(c3O)C(=O)c3cc(OC)cc(O)c3C4=O)[C@@H]2O)O[C@@H]1C [PRM-A, pradimicin A, reference compound]	3.3 ± 1.2	5.9 ± 3.7			CC50 at 5 days [14]: > 100 µM
CCOC(=O)c1ccc(OCCC2CCN(c3ccc(C)nn3)CC2)cc1 [pirodavir, reference compound]					EC50 ([7]; EVA71, BrCr lab strain, RD cells, 50% reduction of virus-induced CPE, read-out: EC50): 0.3 ± 0.1 µM; CC50 at 3 days [13]: > 100 µM
dextran sulfate-5000 [DS-5000, reference compound]					EC50 [4]: 0.07 ± 0.02 µM; EC50 ([6]; MT-4 cells, 50% reduction of virus-induced cytopathic effect, read-out: HIV-2 (ROD) EC50): 0.03 ± 0.01 µM
maraviroc					HIV-1 (NL4.3) EC50 [10]: insensitive; EC50 [10]: > 1 µM; EC50 [11]: 0.00448 µM

From PMC8389807 (Journal of Medicinal Chemistry, 2021)
